Test results taken from US8785399B2, “Antibacterial peptides” (Spiderbiotech S.R.A., priority 2008, dated 2014).
Values after ≈ are worked out from the molar mass of the structure shown. Positions of bridges follow the written chain, without caps; N, C: chain ends. Non-standard residues stand in square brackets, D forms with d. Residues, ends and D or L forms follow the SMILES beside them. Chains are numbered I, II in the order given. Aoc = NCCCCCCCC(=O)O; Ava = NCCCCC(=O)O; βAla = NCCC(=O)O

Columns and labels:
[1] = system: Pseudomonas aeruginosa ATCC 27853; assay: MIC by broth microdilution, P. aeruginosa reference strain; format: cell-based; conditions: ATCC 27853
Experimental: (§1) Determination of MIC. MICs were determined in MHB by the broth microdilution methodology, according to CLSI procedure (formerly NCCLS, Ref. 11) by using final bacterial inocula of 1-5×10^5 CFU/mL. Assays were performed in sterile 96-well microtiter plates with round bottom wells (Corning Costar). Plates were incubated at 37° C. and read after 20-24 h. MIC was defined as the lowest drug concentration causing complete suppression of visible bacterial growth. All compounds were dissolved in (5% v/v DMSO).
(§2) These peptides were synthesized individually, in order to assay the activity of each sequence.

[2] = system: Klebsiella pneumoniae ATCC 10031; assay: MIC by broth microdilution, K. pneumoniae reference strain; format: cell-based; conditions: ATCC 10031
Experimental: as §1, §2

[3] = system: Staphylococcus aureus ATCC 25923
Experimental: as §1, §2

E. coli ATCC 25922 = assay: MIC by broth microdilution, E. coli reference strain; format: cell-based, Escherichia coli; conditions: ATCC 25922
Experimental: as §1
All natural aminoacids have been divided into three groups based on their chemical-physical properties. A total amount of 27 minilibraries, each one containing six peptide in equimolar amounts, were obtained and assayed against E. coli ATCC 25922 as reference strain. MIC (Minimum Inhibitory Concentration) is defined as the lowest concentration inhibiting 100% of visible growth.

Molecule	MIC (ug/mL) P. aeruginosa [1] [µg/mL]	MIC (ug/mL) K. pneumoniae [2] [µg/mL]	MIC (ug/mL) S. aureus [3] [µg/mL]	MIC (ug/mL) E. coli (E. coli ATCC 25922) [µg/mL]
H-GQWKIRVRLSA-OH [ID14, H-G-Q-W-KIRVRLSA-OH]	64	>512	>512	64
CC[C@H](C)[C@H](NC(=O)[C@H](CCCCN)NC(=O)[C@H](CCCCN)NC(=O)[C@H](CCC(N)=O)NC(=O)CCCCCCCN)C(=O)N[C@@H](CCCNC(=N)N)C(=O)N[C@H](C(=O)N[C@@H](CCCNC(=N)N)C(=O)N[C@@H](CC(C)C)C(=O)N[C@@H](CO)C(=O)N[C@@H](C)C(=O)NCCCC[C@H](NC(=O)[C@H](C)NC(=O)[C@H](CO)NC(=O)[C@H](CC(C)C)NC(=O)[C@H](CCCNC(=N)N)NC(=O)[C@@H](NC(=O)[C@H](CCCNC(=N)N)NC(=O)[C@@H](NC(=O)[C@H](CCCCN)NC(=O)[C@H](CCCCN)NC(=O)[C@H](CCC(N)=O)NC(=O)CCCCCCCN)[C@@H](C)CC)C(C)C)C(=O)NCCC(N)=O)C(C)C [ID23, (H-8-Aoa-OKKIRVRLSA)2-Lys-β-Ala-NH2] (I: H-[Aoc]QKKIRVRLSAK[βAla]-NH2 / II: H-[Aoc]QKKIRVRLSA; amide I:12-II:C)	>64	>64	–	32 (≈ 11.2 µM)
CC[C@H](C)[C@H](NC(=O)[C@H](CCCCN)NC(=O)[C@H](CCCCN)NC(=O)[C@H](Cc1c[nH]c2ccccc12)NC(=O)CCCCN)C(=O)N[C@@H](CCCNC(=N)N)C(=O)N[C@H](C(=O)N[C@@H](CCCNC(=N)N)C(=O)N[C@@H](CC(C)C)C(=O)N[C@@H](CO)C(=O)N[C@@H](C)C(=O)NCCCC[C@H](NC(=O)[C@H](C)NC(=O)[C@H](CO)NC(=O)[C@H](CC(C)C)NC(=O)[C@H](CCCNC(=N)N)NC(=O)[C@@H](NC(=O)[C@H](CCCNC(=N)N)NC(=O)[C@@H](NC(=O)[C@H](CCCCN)NC(=O)[C@H](CCCCN)NC(=O)[C@H](Cc1c[nH]c2ccccc12)NC(=O)CCCCN)[C@@H](C)CC)C(C)C)C(=O)NCCC(N)=O)C(C)C [ID21, (H-5-Ava-W-KKIRVRLSA)2-Lys-β-Ala-NH2] (I: H-[Ava]WKKIRVRLSAK[βAla]-NH2 / II: H-[Ava]WKKIRVRLSA; amide I:12-II:C)	64 (≈ 22.1 µM)	64 (≈ 22.1 µM)	–	8 to 16
H-QLKIRVRLSA-OH [ID10, H-Q-L-KIRVRLSA-OH]	128	>512	>512	128
H-LKKIRVRLSA-OH [ID4, H-L-KKIRVRLSA-OH]	256	512	>512	256
H-YKKIRVRLSA-OH [ID7, H-Y-KKIRVRLSA-OH]	256	>512	>512	256
H-QVKIRVRLSA-OH [ID11, H-Q-V-KIRVRLSA-OH]	256	>512	>512	256
H-IKKIRVRLSA-OH [ID3, H-I-KKIRVRLSA-OH]	256	512	512	256
CC[C@H](C)[C@H](NC(=O)[C@H](CCCCN)NC(=O)[C@H](CCCCN)NC(=O)[C@H](CCC(N)=O)NC(=O)CN)C(=O)N[C@@H](CCCNC(=N)N)C(=O)N[C@H](C(=O)N[C@@H](CCCNC(=N)N)C(=O)N[C@@H](CC(C)C)C(=O)N[C@@H](CO)C(=O)N[C@@H](C)C(=O)NCCCC[C@H](NC(=O)[C@H](C)NC(=O)[C@H](CO)NC(=O)[C@H](CC(C)C)NC(=O)[C@H](CCCNC(=N)N)NC(=O)[C@@H](NC(=O)[C@H](CCCNC(=N)N)NC(=O)[C@@H](NC(=O)[C@H](CCCCN)NC(=O)[C@H](CCCCN)NC(=O)[C@H](CCC(N)=O)NC(=O)CN)[C@@H](C)CC)C(C)C)C(=O)NCCC(N)=O)C(C)C [ID20, (H-G-QKKIRVRLSA)2-Lys-β-Ala-NH2] (I: H-GQKKIRVRLSAK[βAla]-NH2 / II: H-GQKKIRVRLSA; amide I:12-II:C)	>64	>64	–	16 to 32
CC[C@H](C)[C@H](NC(=O)[C@H](CCCCN)NC(=O)[C@H](CCCCN)NC(=O)[C@H](CCC(N)=O)NC(=O)CCCCCCCN)C(=O)N[C@@H](CCCNC(=N)N)C(=O)N[C@H](C(=O)N[C@@H](CCCNC(=N)N)C(=O)N[C@@H](CC(C)C)C(=O)N[C@@H](CO)C(=O)N[C@@H](C)C(N)=O)C(C)C [ID17, H-8-Aoa-QKKIRVRLSA-NH2] (H-[Aoc]QKKIRVRLSA-NH2)	>64	>64	–	64 (≈ 47.8 µM)
H-QKKIRVRLSA-OH [ID1, H-QKKIRVRLSA-OH, reference compound]	>512	>512	–	–
H-FKKIRVRLSA-OH [ID2, H-F-KKIRVRLSA-OH]	256	512	512	256
H-QWKIRVRLSA-OH [ID12, H-Q-W-KIRVRLSA-OH]	64	>512	>512	64
CC[C@H](C)[C@H](NC(=O)[C@H](CCCCN)NC(=O)[C@H](Cc1c[nH]c2ccccc12)NC(=O)[C@H](CCC(N)=O)NC(=O)CN)C(=O)N[C@@H](CCCNC(=N)N)C(=O)N[C@H](C(=O)N[C@@H](CCCNC(=N)N)C(=O)N[C@@H](CC(C)C)C(=O)N[C@@H](CO)C(=O)N[C@@H](C)C(=O)NCCCC[C@H](NC(=O)[C@H](C)NC(=O)[C@H](CO)NC(=O)[C@H](CC(C)C)NC(=O)[C@H](CCCNC(=N)N)NC(=O)[C@@H](NC(=O)[C@H](CCCNC(=N)N)NC(=O)[C@@H](NC(=O)[C@H](CCCCN)NC(=O)[C@H](Cc1c[nH]c2ccccc12)NC(=O)[C@H](CCC(N)=O)NC(=O)CN)[C@@H](C)CC)C(C)C)C(=O)NCCC(N)=O)C(C)C [ID19, (H-G-Q-W-KIRVRLSA)2-Lys-β-Ala-NH2] (I: H-GQWKIRVRLSAK[βAla]-NH2 / II: H-GQWKIRVRLSA; amide I:12-II:C)	>64	>64	–	16 (≈ 5.7 µM)
H-QYKIRVRLSA-OH [ID13, H-Q-Y-KIRVRLSA-OH]	>512	>512	>512	>256
CC[C@H](C)[C@H](NC(=O)[C@H](CCCCN)NC(=O)[C@H](CCCCN)NC(=O)[C@H](Cc1c[nH]c2ccccc12)NC(=O)CCCCCCCN)C(=O)N[C@@H](CCCNC(=N)N)C(=O)N[C@H](C(=O)N[C@@H](CCCNC(=N)N)C(=O)N[C@@H](CC(C)C)C(=O)N[C@@H](CO)C(=O)N[C@@H](C)C(N)=O)C(C)C [ID15, H-8-Aoa-W-KKIRVRLSA-NH2] (H-[Aoc]WKKIRVRLSA-NH2)	>64	>64	–	32 (≈ 22.9 µM)
CC[C@H](C)[C@H](NC(=O)[C@H](CCCCN)NC(=O)[C@H](Cc1c[nH]c2ccccc12)NC(=O)[C@H](CCC(N)=O)NC(=O)CCCCCCCN)C(=O)N[C@@H](CCCNC(=N)N)C(=O)N[C@H](C(=O)N[C@@H](CCCNC(=N)N)C(=O)N[C@@H](CC(C)C)C(=O)N[C@@H](CO)C(=O)N[C@@H](C)C(N)=O)C(C)C [ID16, H-8-Aoa-Q-W-KIRVRLSA-NH2] (H-[Aoc]QWKIRVRLSA-NH2)	>64	>64	–	32 (≈ 22.9 µM)
CC[C@H](C)[C@H](NC(=O)[C@H](CCCCN)NC(=O)[C@H](Cc1c[nH]c2ccccc12)NC(=O)[C@H](CCC(N)=O)NC(=O)CCCCN)C(=O)N[C@@H](CCCNC(=N)N)C(=O)N[C@H](C(=O)N[C@@H](CCCNC(=N)N)C(=O)N[C@@H](CC(C)C)C(=O)N[C@@H](CO)C(=O)N[C@@H](C)C(=O)NCCCC[C@H](NC(=O)[C@H](C)NC(=O)[C@H](CO)NC(=O)[C@H](CC(C)C)NC(=O)[C@H](CCCNC(=N)N)NC(=O)[C@@H](NC(=O)[C@H](CCCNC(=N)N)NC(=O)[C@@H](NC(=O)[C@H](CCCCN)NC(=O)[C@H](Cc1c[nH]c2ccccc12)NC(=O)[C@H](CCC(N)=O)NC(=O)CCCCN)[C@@H](C)CC)C(C)C)C(=O)NCCC(N)=O)C(C)C [ID22, (H-5-Ava-Q-W-KIRVRLSA)2-Lys-β-Ala-NH2] (I: H-[Ava]QWKIRVRLSAK[βAla]-NH2 / II: H-[Ava]QWKIRVRLSA; amide I:12-II:C)	>64	>64	–	16 (≈ 5.53 µM)
